Assay type in all cases: functional
In test [1] the test system is Pseudomonas aeruginosa. Kind of test: Antibacterial activity against quinolone susceptible Pseudomonas aeruginosa.
Test [2] has as its system Escherichia coli. Put plainly: Antibacterial activity against quinolone susceptible Escherichia coli.
Test [3] deals with Pseudomonas aeruginosa. Put plainly: Synergistic antibacterial activity against Pseudomonas aeruginosa assessed as reduction in mitomycin C MIC (reference value: […] to […] microg/ml).
Test [4] concerns Pseudomonas aeruginosa. Kind of test: Antibacterial activity against Pseudomonas aeruginosa PAO750.
In test [5] the test system is Pseudomonas aeruginosa. Kind of test: Antibacterial activity against Pseudomonas aeruginosa PAO200.
The next test relates to Enterobacter cloacae. Kind of test: Synergistic antibacterial activity against Enterobacter cloacae assessed as reduction in mitomycin C MIC (reference value: […] to […] microg/ml).
The test system of another test is Klebsiella pneumoniae. Put plainly: Synergistic antibacterial activity against Klebsiella pneumoniae assessed as reduction in mitomycin C MIC (reference value: […] to […] microg/ml).
Test [6] deals with Pseudomonas aeruginosa. Kind of test: Antibacterial activity against Pseudomonas aeruginosa PAO1.
Test [7] has as its system Escherichia coli. Put plainly: Synergistic antibacterial activity against Escherichia coli assessed as reduction in mitomycin C MIC (reference value: […] to […] microg/ml).
The subject of test [8] is Staphylococcus aureus. Kind of test: Antibacterial activity against methicillin resistant Staphylococcus aureus 3.
The test system of test [9] is Staphylococcus aureus. Put plainly: Potency index, ratio of gatifloxacin MIC to test compound MIC for antibacterial activity against Staphylococcus aureus.
In test [10] the test system is Staphylococcus aureus. Put plainly: Potency index, ratio of gatifloxacin MIC to test compound MIC for antibacterial activity against methicillin susceptible Staphylococcus aureus.
In test [11] the test system is Streptococcus pneumoniae. Kind of test: Potency index, ratio of vancomycin MIC to test compound MIC for antibacterial activity against methicillin susceptible Streptococcus pneumoniae.
For test [12], the system named is Staphylococcus aureus. Put plainly: Potency index, ratio of vancomycin MIC to test compound MIC for antibacterial activity against methicillin susceptible Staphylococcus aureus.
The test system of test [13] is Streptococcus pneumoniae. Kind of test: Potency index, ratio of gatifloxacin MIC to test compound MIC for antibacterial activity against methicillin susceptible Streptococcus pneumoniae.
Test [14] has as its system Staphylococcus aureus. Put plainly: Potency index, ratio of vancomycin MIC to test compound MIC for antibacterial activity against Staphylococcus aureus.
In test [15] the test system is Staphylococcus aureus. Put plainly: Antibacterial activity against Staphylococcus aureus.
For test [16], the system named is Staphylococcus aureus. Put plainly: Antibacterial activity against methicillin resistant Staphylococcus aureus 2.
Test [17] relates to Staphylococcus aureus. Kind of test: Antibacterial activity against methicillin resistant Staphylococcus aureus 1.
In test [18] the test system is Streptococcus pneumoniae. Kind of test: Antibacterial activity against Streptococcus pneumoniae.
In test [19] the test system is Staphylococcus aureus. Kind of test: Antibacterial activity against methicillin susceptible Staphylococcus aureus.
For test [20], the system named is Staphylococcus aureus. Put plainly: Potency index, ratio of vancomycin MIC to test compound MIC for antibacterial activity against methicillin resistant Staphylococcus aureus 1.
The subject of test [21] is Staphylococcus aureus. Put plainly: Potency index, ratio of vancomycin MIC to test compound MIC for antibacterial activity against methicillin resistant Staphylococcus aureus 2.
Test [22] concerns Staphylococcus aureus. Kind of test: Potency index, ratio of vancomycin MIC to test compound MIC for antibacterial activity against methicillin resistant Staphylococcus aureus 3.
For test [23], the system named is Staphylococcus aureus. Kind of test: Antibacterial activity against fluoroquinolone sensitive Staphylococcus aureus.
For test [24], the system named is Staphylococcus aureus. Kind of test: Potency index, ratio of levofloxacin MIC to test compound MIC for antibacterial activity against fluoroquinolone/methicillin resistant Staphylococcus aureus.
Test [25] deals with Staphylococcus aureus. Kind of test: Antibacterial activity against fluoroquinolone/methicillin resistant Staphylococcus aureus.
Test [26] relates to Escherichia coli. Put plainly: Antibacterial activity against quinolone resistant Escherichia coli.
For test [27], the system named is Acinetobacter baumannii. Kind of test: Antibacterial activity against quinolone resistant Acinetobacter baumannii.
Test [28] deals with Escherichia coli. Put plainly: Potency index, ratio of levofloxacin MIC to test compound MIC for quinolone resistant Escherichia coli.
Test [29] concerns Pseudomonas aeruginosa. Put plainly: Potency index, ratio of levofloxacin MIC to test compound MIC for quinolone resistant Pseudomonas aeruginosa.
For test [30], the system named is Pseudomonas aeruginosa. Kind of test: Antibacterial activity against quinolone resistant Pseudomonas aeruginosa.
Test [31] relates to Acinetobacter baumannii. Kind of test: Potency index, ratio of levofloxacin MIC to test compound MIC for quinolone resistant Acinetobacter baumannii.
Test [32] relates to Staphylococcus aureus. Put plainly: Antibacterial activity against ciprofloxacin resistant Staphylococcus aureus.
Test [33] concerns Escherichia coli. Put plainly: Antibacterial activity against ciprofloxacin resistant Escherichia coli.

Values after ≈ are worked out from the molar mass of the structure shown. Bounds are passed on as bounds.

On to `CNC1CN(c2c(F)cc3c(=O)c(C(=O)O)cn(-c4cc(N)c(F)cc4CO)c3c2Cl)C1`, for which the MIC against Pseudomonas aeruginosa [1] and against Escherichia coli [2] was 0.008 µg/mL (≈ 0.0172 µM) each time.
Regarding `NC[C@H]1O[C@H](O[C@H]2[C@H](OCCCCN3CCN(c4cc5c(cc4F)c(=O)c(C(=O)O)cn5C4CC4)CC3)[C@@H](O[C@H]3O[C@H](CO)[C@@H](O)[C@H](N)[C@H]3O)[C@H](N)C[C@@H]2N)[C@H](N)C[C@@H]1O`, the MIC was 0.31 µg/mL in the test on Pseudomonas aeruginosa [3]; 2 µg/mL (≈ 2.34 µM) in the test with Pseudomonas aeruginosa [4]; 4 µg/mL (≈ 4.69 µM) in the test with Pseudomonas aeruginosa [5]; 0.31 µg/mL in the test on Enterobacter cloacae; 0.31 µg/mL in the test on Klebsiella pneumoniae; 32 µg/mL (≈ 37.5 µM) against Pseudomonas aeruginosa [6]. Also, in the test with Escherichia coli [7], the MIC turned out to be 0.31 µg/mL.
`CO/N=C1/C(=O)N(Cc2cn(CC(=O)N3CCN(c4c(F)cc5c(=O)c(C(=O)O)cn(C6CC6)c5c4OC)CC3C)nn2)c2ccc(F)cc21` (stereo unspecified): the MIC was at most 0.03 µg/mL in the test on Staphylococcus aureus [8]; 0.06 µg/mL (≈ 0.0869 µM) against Staphylococcus aureus [15]; at most 0.03 µg/mL against Staphylococcus aureus [16]; at most 0.03 µg/mL in the test on Staphylococcus aureus [17]; 0.06 µg/mL (≈ 0.0869 µM) in the test on Streptococcus pneumoniae [18]; 0.06 µg/mL (≈ 0.0869 µM) with Staphylococcus aureus [19]. Also, the Ratio with Staphylococcus aureus [9], with Staphylococcus aureus [10], with Streptococcus pneumoniae [11], in the test with Staphylococcus aureus [12], with Streptococcus pneumoniae [13] and with Staphylococcus aureus [14] was 2 throughout.
In the case of `CCn1cc(C(=O)O)c(=O)c2cc(F)c(N3CCN(Cc4nnc(-c5cccc(OC)c5)o4)CC3)cc21`, the minimum inhibitory concentration (MIC) with Staphylococcus aureus [8] worked out at 1 µg/mL (≈ 1.97 µM); with Staphylococcus aureus [15] it was 2 µg/mL (≈ 3.94 µM); in the test with Staphylococcus aureus [16], 0.5 µg/mL (≈ 0.985 µM); against Staphylococcus aureus [17], 0.5 µg/mL (≈ 0.985 µM). For the same molecule, the Ratio in the test on Staphylococcus aureus [20], with Staphylococcus aureus [21] and in the test on Staphylococcus aureus [22] was 2 in each case.
`C[C@H]1COc2c(N3C4CCC3CC(O)C4)c(F)cc3c(=O)c(C(=O)O)cn1c23` (stereo partly specified) yielded an MIC in the test on Staphylococcus aureus [23] of at most 0.5 µg/mL. In addition, in the test with Staphylococcus aureus [24], the Ratio was 4.
As for `C[C@H]1COc2c(N3C4CCC3CC(OC(=O)CCl)C4)c(F)cc3c(=O)c(C(=O)O)cn1c23` (stereo partly specified), the MIC in the test with Staphylococcus aureus [25] and in the test on Staphylococcus aureus [23] was at most 0.5 µg/mL throughout. In the test on Staphylococcus aureus [24], the Ratio was 4.
Consider `CNC1CN(c2c(F)c(C)c3c(=O)c(C(=O)O)cn(-c4cc(N)c(F)cc4CO)c3c2Cl)C1`, for which the MIC in the test on Escherichia coli [26] stood at 0.12 µg/mL (≈ 0.251 µM); against Pseudomonas aeruginosa [1] it was 0.008 µg/mL (≈ 0.0167 µM); against Acinetobacter baumannii [27] it was 0.12 µg/mL (≈ 0.251 µM); in the test with Escherichia coli [2] it was 0.008 µg/mL (≈ 0.0167 µM); against Pseudomonas aeruginosa [30] it was 0.12 µg/mL (≈ 0.251 µM). Besides, the Ratio in the test on Escherichia coli [28], with Pseudomonas aeruginosa [29] and in the test on Acinetobacter baumannii [31] was 2 in each case.
For the molecule `CC(Cl)C(=O)OC1CC2CCC(C1)N2c1c(F)cc2c(=O)c(C(=O)O)cn3c2c1OC[C@@H]3C` (stereo partly specified), the MIC with Staphylococcus aureus [25] and with Staphylococcus aureus [23] was at most 0.5 µg/mL each time. The Ratio with Staphylococcus aureus [24] was 4.
As for `Cc1nc(Cl)nc(N2CCN(c3cc4c(cc3F)c(=O)c(C(=O)O)cn4C3CC3)CC2)c1N`, the minimum inhibitory concentration (MIC) with Staphylococcus aureus [32] and with Escherichia coli [33] was 7.4 µg/mL (≈ 15.6 µM) each time.

The MIC is the least concentration at which growth counts as inhibited.

The record behind these values is ChEMBL document CHEMBL5241092, “The antibacterial activity of fluoroquinolone derivatives: An update (2018-2021)” (2021).
